Laboratory results: patent US20100093702A1, “METHYLENE AMINES OF THIENO[2,3-d]PYRIMIDINE AND THEIR USE AS ADENOSINE A2a RECEPTOR ANTAGONISTS” (priority 2008, published 2010)

Columns and labels:
[1] = molecular target: T1, human adenosine A1 receptor (Homo sapiens, UniProt P30542); experiment: Adenosine A1 Receptor Functional Assay (A1GAL2); assay type: cell-based; conditions: CHO-K1 cells, cAMP inducible beta-galactosidase reporter, 4 nM r-PIA/1 uM Forskolin challenge
T1 construct: expressed in transfected cells; host or cells: CHO-K1
T1 sequence (P30542 1-326): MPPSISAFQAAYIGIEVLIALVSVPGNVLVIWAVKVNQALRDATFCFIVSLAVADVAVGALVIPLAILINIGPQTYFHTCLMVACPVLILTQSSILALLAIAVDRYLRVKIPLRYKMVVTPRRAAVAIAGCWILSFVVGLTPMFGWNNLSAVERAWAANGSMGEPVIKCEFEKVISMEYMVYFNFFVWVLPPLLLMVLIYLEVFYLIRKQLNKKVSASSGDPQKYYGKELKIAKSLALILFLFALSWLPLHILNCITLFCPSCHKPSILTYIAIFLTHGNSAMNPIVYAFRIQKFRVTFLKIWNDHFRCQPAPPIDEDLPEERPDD
Method: Adenosine A1 Receptor Functional Assay (A1GAL2)
To initiate the functional assay, cryopreserved CHO-K1 cells overexpressing the human adenosine A1 receptor and containing a cAMP inducible beta-galactosidase reporter gene were thawed, centrifuged, DMSO containing media removed, and then seeded with fresh culture media into clear 384-well tissue culture treated plates (BD #353961) at a concentration of 10K cells/well. Prior to assay, these plates were cultured for two days at 37° C., 5% CO2, 90% Rh. On the day of the functional assay, culture media was removed and replaced with 45 uL assay medium (Hams/F-12 Modified (Mediatech # 10-080CV) supplemented w/0.1% BSA). Test compounds were diluted and 11 point curves created at a 1000× concentration in 100% DMSO. Immediately after addition of assay media to the cell plates, […] of the appropriate test compound antagonist or agonist control curves were added to cell plates using a Cartesian Hummingbird. Compound curves were allowed to incubate at room temperature on cell plates for approximately 15 minutes before addition of a 4 nM r-PIA (Sigma P4532)/1 uM Forskolin (Sigma F3917) agonist challenge (5 uL volume). A control curve of r-PIA in 1 uM Forskolin, a DMSO/Media control, and a single dose of Forskolin were also included on each plate. After additions, cell plates were allowed to incubate at 37° C., 5% CO2, 90% Rh for 5.5-6 hours. After incubation, media was removed, and cell plates were washed 1×50 uL with DPBS w/o Ca & Mg (Mediatech 21-031-CV).
Into dry wells, 20 uL of 1× Reporter Lysis Buffer (Promega E3971 (diluted in dH2O from 5× stock)) was added to each well and plates frozen at −20° C. overnight. For β-galactosidase enzyme calorimetric assay, plates were thawed out at room temperature and 20 μL 2× assay buffer (Promega) was added to each well. Color was allowed to develop at 37° C., 5% CO2, 90% Rh for 1-1.5 h or until reasonable signal appeared. The calorimetric reaction was stopped with the addition of 60 μL/well 1M sodium carbonate. Plates were counted at 405 nm on a SpectraMax Microplate Reader (Molecular Devices). Data was analyzed in Microsoft Excel and IC/EC50 curves were fit using a standardized macro.

[2] = molecular target: T2, human A2a adenosine receptor (Homo sapiens, UniProt P29274); experiment: Ligand Binding Assay for Adenosine A2a Receptor (A2A-B); conditions: HEK293 plasma membrane, radioligand [3H]CGS21680
T2 construct: purchased PerkinElmer RB-HA2a; host or cells: HEK293
Method: Ligand Binding Assay for Adenosine A2a Receptor
Ligand binding assay of adenosine A2a receptor was performed using plasma membrane of HEK293 cells containing human A2a adenosine receptor (PerkinElmer, RB-HA2a) and radioligand [^3H]CGS21680 (PerkinElmer, NET 1021). Assay was set up in 96-well polypropylene plate in total volume of 200 μL by sequentially adding 20 μL 1:20 diluted membrane, 130 μL assay buffer (50 mM Tris.HCl, pH7.4 10 mM MgCl2, 1 mM EDTA) containing [^3H] CGS21680, 50 μL diluted compound (4×) or vehicle control in assay buffer. Nonspecific binding was determined by […] NECA. Reaction was carried out at room temperature for 2 hours before filtering through 96-well GF/C filter plate pre-soaked in 50 mM Tris.HCl, pH7.4 containing 0.3% polyethylenimine. Plates were then washed 5 times with cold 50 mM Tris.HCl, pH7.4, dried and sealed at the bottom. Microscintillation fluid 30 μL was added to each well and the top sealed. Plates were counted on Packard Topcount for [^3H]. Data was analyzed in Microsoft Excel and GraphPad Prism programs. (Varani, K.; Gessi, S.; Dalpiaz, A.; Borea, P. A. British Journal of Pharmacology, 1996, 117, 1693)

[3] = molecular target: T3, human adenosine A2a receptor (Homo sapiens, UniProt P29274); experiment: Adenosine A2a Receptor Functional Assay (A2AGAL2); assay type: cell-based; conditions: CHO-K1 cells, cAMP inducible beta-galactosidase reporter, 15 nM NECA agonist challenge
T3 construct: expressed in transfected cells; host or cells: CHO-K1
Method: Adenosine A2a Receptor Functional Assay (A2AGAL2)
To initiate the functional assay, cryopreserved CHO-K1 cells overexpressing the human adenosine A2a receptor and containing a cAMP inducible beta-galactosidase reporter gene were thawed, centrifuged, DMSO containing media removed, and then seeded with fresh culture media into clear 384-well tissue culture treated plates (BD #353961) at a concentration of 10K cells/well. Prior to assay, these plates were cultured for two days at 37° C., 5% CO2, 90% Rh. On the day of the functional assay, culture media was removed and replaced with 45 uL assay medium (Hams/F-12 Modified (Mediatech # 10-080CV) supplemented w/0.1% BSA). Test compounds were diluted and 11 point curves created at a 1000× concentration in 100% DMSO. Immediately after addition of assay media to the cell plates, 50 nL of the appropriate test compound antagonist or agonist control curves were added to cell plates using a Cartesian Hummingbird. Compound curves were allowed to incubate at room temperature on cell plates for approximately 15 minutes before addition of a 15 nM NECA (Sigma E2387) agonist challenge (5 uL volume). A control curve of NECA, a DMSO/Media control, and a single dose of Forskolin (Sigma F3917) were also included on each plate. After additions, cell plates were allowed to incubate at 37° C., 5% CO2, 90% Rh for 5.5-6 hours. After incubation, media was removed, and cell plates were washed 1×50 uL with DPBS w/o Ca & Mg (Mediatech 21-031-CV). Into dry wells, 20 uL of 1× Reporter Lysis Buffer (Promega E3971 (diluted in dH2O from 5× stock)) was added to each well and plates frozen at −20° C. overnight. For β-galactosidase enzyme calorimetric assay, plates were thawed out at room temperature and 20 μL 2× assay buffer (Promega) was added to each well. Color was allowed to develop at 37° C., 5% CO2, 90% Rh for 1-1.5 h or until reasonable signal appeared. The calorimetric reaction was stopped with the addition of 60 μL/well 1M sodium carbonate. Plates were counted at 405 nm on a SpectraMax Microplate Reader (Molecular Devices). Data was analyzed in Microsoft Excel and IC/EC50 curves were fit using a standardized macro.

T2 sequence (P29274 whole entry): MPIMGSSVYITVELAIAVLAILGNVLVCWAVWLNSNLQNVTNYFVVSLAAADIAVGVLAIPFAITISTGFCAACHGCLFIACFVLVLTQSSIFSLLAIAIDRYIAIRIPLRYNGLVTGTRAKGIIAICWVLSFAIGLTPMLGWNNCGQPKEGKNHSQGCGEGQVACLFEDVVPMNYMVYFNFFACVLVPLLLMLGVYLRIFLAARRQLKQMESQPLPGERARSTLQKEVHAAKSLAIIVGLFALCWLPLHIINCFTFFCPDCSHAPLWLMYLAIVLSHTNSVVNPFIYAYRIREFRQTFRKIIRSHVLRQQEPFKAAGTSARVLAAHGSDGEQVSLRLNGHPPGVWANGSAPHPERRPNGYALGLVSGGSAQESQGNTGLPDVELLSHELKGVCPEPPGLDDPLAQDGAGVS
T3 sequence (P29274 whole entry): as above

| Structure (SMILES) | Ki [1] [nM] | Ki [2] [nM] | Ki [3] [nM] |
| --- | --- | --- | --- |
| Nc1nc(-c2ccc(Br)o2)nc2sc(CN3CCOCC3)cc12 [Example 7, 2-(5-Bromo-furan-2-yl)-6-morpholin-4-ylmethyl-thieno[2,3-d]pyrimidin-4-ylamine] | 698 | 202 | 18.3 |
| Nc1nc(-c2ccco2)nc2sc(CN3CCCC3)cc12 [Example 28, 2-Furan-2-yl-6-pyrrolidin-1-ylmethyl-thieno[2,3-d]pyrimidin-4-ylamine] | 6430 | 14.4 | 28.1 |
| Nc1nc(-c2ccco2)nc2sc(CNC3CC3)cc12 [Example 29, 6-Cyclopropylaminomethyl-2-furan-2-yl-thieno[2,3-d]pyrimidin-4-ylamine] | 1890 | 93.3 | 36.2 |
| Nc1nc(-c2cccs2)nc2sc(CN3CCCC3)cc12 [Example 30, 6-Pyrrolidin-1-ylmethyl-2-thiophen-2-yl-thieno[2,3-d]pyrimidin-4-ylamine] | > 10000 | 139 | 115 |
| CCN(CC)Cc1cc2c(N)nc(-c3ccco3)nc2s1 [Example 31, 6-Diethylaminomethyl-2-furan-2-yl-thieno[2,3-d]pyrimidin-4-ylamine] | 2130 | 137 | 55.2 |
| Nc1nc(-c2ccco2)nc2sc(CNC3CCCCC3)cc12 [Example 32, 6-Cyclohexylaminomethyl-2-furan-2-yl-thieno[2,3-d]pyrimidin-4-ylamine] | 2480 | 142 | 168 |
| COCCNCc1cc2c(N)nc(-c3ccco3)nc2s1 [Example 33, 2-Furan-2-yl-6-[(2-methoxy-ethylamino)-methyl]-thieno[2,3-d]pyrimidin-4-ylamine] | – | 216 | – |
| Cc1ccc(-c2nc(N)c3cc(CN4CCCCC4)sc3n2)o1 [Example 34, 2-(5-Methyl-furan-2-yl)-6-piperidin-1-ylmethyl-thieno[2,3-d]pyrimidin-4-ylamine] | 606 | 18.7 | 28.4 |
| Nc1nc(-c2ccc(Br)o2)nc2sc(CN3CCCC3)cc12 [Example 35, 2-(5-Bromo-furan-2-yl)-6-pyrrolidin-1-ylmethyl-thieno[2,3-d]pyrimidin-4-ylamine] | 800 | 15 | 22 |
| Cc1ccc(-c2nc(N)c3cc(CN4CCN(C)CC4)sc3n2)o1 [Example 36, 2-(5-Methyl-furan-2-yl)-6-(4-methyl-piperazin-1-ylmethyl)-thieno[2,3-d]pyrimidin-4-ylamine] | – | 371 | – |
| Cc1ccc(-c2nc(N)c3cc(CN4CCOCC4)sc3n2)o1 [Example 38, 2-(5-Methyl-furan-2-yl)-6-morpholin-4-ylmethyl-thieno[2,3-d]pyrimidin-4-ylamine] | 1050 | 32.7 | 31.9 |
| Cc1ccc(-c2nc(N)c3cc(CN4CCCC4)sc3n2)o1 [Example 39, 2-(5-Methyl-furan-2-yl)-6-pyrrolidin-1-ylmethyl-thieno[2,3-d]pyrimidin-4-ylamine] | 620 | 10.9 | 25.9 |
| Cc1ccc(-c2nc(N)c3cc(CN4CCC(O)C4)sc3n2)o1 (stereo not drawn) [Example 40, 1-[4-Amino-2-(5-methyl-furan-2-yl)-thieno[2,3-d]pyrimidin-6-ylmethyl]-pyrrolidin-3-ol] | – | 375 | – |
| Cc1ccc(-c2nc(N)c3cc(CN4CCc5ccccc5C4)sc3n2)o1 [Example 41, 6-(3,4-Dihydro-1H-isoquinolin-2-ylmethyl)-2-(5-methyl-furan-2-yl)-thieno[2,3-d]pyrimidin-4-ylamine] | 3320 | 187 | 202 |
| Nc1nc(-c2ccco2)nc2sc(CN3CCOCC3)cc12 [Example 42, 2-Furan-2-yl-6-morpholin-4-ylmethyl-thieno[2,3-d]pyrimidin-4-ylamine] | 18200 | 88.1 | 53 |
| C[C@@H]1CCC[C@H](C)N1Cc1cc2c(N)nc(-c3ccco3)nc2s1 [Example 44, 6-(2,6-Dimethyl-piperidin-1-ylmethyl)-2-furan-2-yl-thieno[2,3-d]pyrimidin-4-ylamine] | 99.8 | 1.4 | 5.65 |
| Nc1nc(-c2ccco2)nc2sc(CN3CCC(=O)CC3)cc12 [Example 45, 1-(4-Amino-2-furan-2-yl-thieno[2,3-d]pyrimidin-6-ylmethyl)-piperidin-4-one] | 2720 | 190 | 229 |
| CN(C)Cc1cc2c(N)nc(-c3ccco3)nc2s1 [Example 46, 6-Dimethylaminomethyl-2-furan-2-yl-thieno[2,3-d]pyrimidin-4-ylamine] | 3550 | 89 | 143 |
| Nc1nc(-c2ccco2)nc2sc(CN3CCC(F)C3)cc12 (stereo not drawn) [Example 51, 6-(3-Fluoro-pyrrolidin-1-ylmethyl)-2-furan-2-yl-thieno[2,3-d]pyrimidin-4-ylamine] | 1340 | 5.9 | 9.8 |
| Nc1nc(-c2ccco2)nc2sc(CN3CCC(O)CC3)cc12 [Example 52, 1-(4-Amino-2-furan-2-yl-thieno[2,3-d]pyrimidin-6-ylmethyl)-piperidin-4-ol] | 4000 | 220 | 297 |
| Nc1nc(-c2ccco2)nc2sc(CN3CC[C@H](F)C3)cc12 [Example 53, 6-(3-Fluoro-pyrrolidin-1-ylmethyl)-2-furan-2-yl-thieno[2,3-d]pyrimidin-4-ylamine] | 656 | 14 | 12.3 |
